From US20250041429A1, “COMPOUND HAVING BTK PROTEIN DEGRADATION ACTIVITY, AND MEDICAL USES THEREOF” (UBIX THERAPEUTICS, INC., priority 2021, published 2025)

Biological target: T1, BTK protein (Homo sapiens, UniProt Q06187)
T1 construct: endogenous in cells; host or cells: TMD-8 cells
Assay: Measurement of BTK protein degradation ability in TMD-8 cells (Western blotting)
Format: cell-based
Details: harvested after 24 hours; for BTK degradation (%) 10 nM: compound 10 nM; for BTK degradation (%) 100 nM: compound 100 nM; for BTK degradation (%) 1 nM: compound 1 nM
Procedure, shortened: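 TMD-8 cells (1×10^6/mL) were treated for 24 h with compound at 0.1, 1, 10 μM or 0.0001–0.1 μM, with DMSO as vehicle control. RIPA lysates were normalized by BCA assay. BTK was detected by Western blot with anti-BTK, using GAPDH or β-actin as loading controls, and imaged on LI-COR Odyssey.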

T1 sequence (Q06187 whole entry): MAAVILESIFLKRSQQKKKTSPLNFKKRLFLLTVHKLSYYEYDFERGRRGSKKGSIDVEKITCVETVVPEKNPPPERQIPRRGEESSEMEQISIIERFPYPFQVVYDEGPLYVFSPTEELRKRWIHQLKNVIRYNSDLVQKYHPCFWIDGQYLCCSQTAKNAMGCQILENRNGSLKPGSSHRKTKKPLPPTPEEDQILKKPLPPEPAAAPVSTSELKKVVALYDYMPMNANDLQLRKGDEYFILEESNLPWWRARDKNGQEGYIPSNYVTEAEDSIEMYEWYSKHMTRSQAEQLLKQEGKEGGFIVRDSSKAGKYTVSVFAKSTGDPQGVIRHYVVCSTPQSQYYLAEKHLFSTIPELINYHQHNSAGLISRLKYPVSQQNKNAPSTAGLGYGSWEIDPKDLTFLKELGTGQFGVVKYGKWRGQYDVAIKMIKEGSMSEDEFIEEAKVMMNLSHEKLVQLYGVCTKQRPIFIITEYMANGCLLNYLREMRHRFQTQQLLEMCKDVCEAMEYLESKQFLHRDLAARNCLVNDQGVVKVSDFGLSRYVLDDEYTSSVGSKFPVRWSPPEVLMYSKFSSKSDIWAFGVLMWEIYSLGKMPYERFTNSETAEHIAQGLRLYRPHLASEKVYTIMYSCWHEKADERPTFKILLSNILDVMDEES

Row | SMILES | BTK degradation (%) 10 nM [%] | BTK degradation (%) 100 nM [%] | BTK degradation (%) 1 nM [%]
1 | Cc1cc(-c2ccnc(Nc3ccc4c(c3)CN(CC3CCN(c5ccc6c(c5)C(=O)N(C5CCC(=O)NC5=O)C6=O)CC3)CC4)n2)ccc1CNC(=O)N1CC(OC(C)C)C1 (centres unmarked) [Example 1, N-(4-(2-((2-((1-(2-(2,6-dioxopiperidin-3-yl)-1,3-dioxoisoindolin-5-yl)piperidin-4-yl)methyl)-1,2,3,4-tetrahydroisoquinolin-7-yl)amino)pyrimidin-4-yl)-2-methylbenzyl)-3-isopropoxyazetidine-1-carboxamide] | 92 | 97.5 | 
2 | Cc1cc(-c2ccnc(Nc3ccc(N4CCN(CC5CN(c6ccc7c(c6)C(=O)N(C6CCC(=O)NC6=O)C7=O)C5)CC4)cc3)n2)ccc1CNC(=O)N1CC(OC(C)C)C1 (centres unmarked) [Example 11, N-(4-(2-((4-(4-((1-(2-(2,6-dioxopiperidin-3-yl)-1,3-dioxoisoindolin-5-yl)azetidin-3-yl)methyl)piperazin-1-yl)phenyl)amino)pyrimidin-4-yl)-2-methylbenzyl)-3-isopropoxyazetidine-1-carboxamide] | 93.5 | 98.5 | 60
3 | Cc1cc(-c2ccnc(Nc3ccc(N4CCN(CC5CCN(C(=O)c6cccc(NC7CCC(=O)NC7=O)c6)CC5)CC4)cc3)n2)ccc1CNC(=O)c1cn(C(C)(C)C)nn1 (centres unmarked) [Example 97] | 94.0 | 98.5 | 67.5
4 | Cc1cc(-c2ccnc(Nc3ccc(N4CCN(CC5CCN(c6ccc(NC7CCC(=O)NC7=O)cc6F)CC5)CC4)cc3)n2)ccc1CNC(=O)c1cn(C(C)(C)C)nn1 (centres unmarked) [Example 72, 1-(tert-butyl)-N-(4-(2-((4-(4-((1-(4-((2,6-dioxopiperidin-3-yl)amino)-2-fluorophenyl)piperidin-4-yl)methyl)piperazin-1-yl)phenyl)amino)pyrimidin-4-yl)-2-methylbenzyl)-1H-1,2,3-triazole-4-carboxamide] | 95.5 | 99.0 | 62.5
5 | Cc1cc(-c2ccnc(Nc3ccc(N4CCN(CC5CN(C(=O)c6cccc(NC7CCC(=O)NC7=O)c6)C5)CC4)cc3)n2)ccc1CNC(=O)c1cnn(C(C)C)c1 (centres unmarked) [Example 94, N-(4-(2-((4-(4-((1-(3-((2,6-dioxopiperidin-3-yl)amino)benzoyl)azetidin-3-yl)methyl)piperazin-1-yl)phenyl)amino)pyrimidin-4-yl)-2-methylbenzyl)-1-isopropyl-1H-pyrazole-4-carboxamide] | 93.5 | 98.5 | 59.5
6 | Cc1cc(-c2ccnc(Nc3ccc(N4CCC(CN5CCC(c6cccc(N7CCC(=O)NC7=O)c6)CC5)CC4)cc3)n2)ccc1CNC(=O)c1cn(C(C)(C)C)nn1 [Example 138, 1-(tert-butyl)-N-(4-(2-((4-(4-((4-(3-(2,4-dioxotetrahydropyrimidin-1 (2H)-yl)phenyl)piperidin-1-yl)methyl)piperidin-1-yl)phenyl)amino)pyrimidin-4-yl)-2-methylbenzyl)-1H-1,2,3-triazole-4-carboxamide] | 71.5 | 90.0 | 15.5
7 | Cc1cc(-c2ccnc(Nc3ccc(N4CCC(CN5CCC(c6ccc(OC7CCC(=O)NC7=O)cc6)CC5)CC4)cc3)n2)ccc1CNC(=O)N1CC(OC(C)C)C1 (centres unmarked) [Example 119, N-(4-(2-((4-(4-((4-(4-((2,6-dioxopiperidin-3-yl)oxy)phenyl)piperidin-1-yl)methyl)piperidin-1-yl)phenyl)amino)pyrimidin-4-yl)-2-methylbenzyl)-3-isopropoxyazetidine-1-carboxamide] | 91.0 | 99.5 | 41.5
